Results from article PMC7217877, “N-AS-triggered SPMs are direct regulators of microglia in a model of Alzheimer’s disease” (Nature Communications, 2020).
Where “and” joins values, the source holds several entries; their conditions need not be identical. Equal entries are not always repeated.

How the values were obtained:
[1] = tested on: COX2; assay: SphK1-mediated COX2 acetylation with [14C] acetyl-CoA (ATP competition, SphK1 mutants; Supplementary Fig 1h,i); assay type: biochemical, human; details: COX2 +
Description: Single point mutations in SphK1 (R56A, R57A, R24A, R185A, D178A, and F192A) and COX2 (S565A, N181A, T564A, and S567A) were generated using the In-Fusion Cloning Kits (Clontech) and ORF cDNA expression plasmids of human SphK1 and COX2 gene (Sino Biological Inc, HG15679-NH and HG12036-NH), according to the manufacturer’s instructions. The forward and reverse primers described in Supplementary Table 4. The SphK1 WT, SphK1 mutants, COX2 WT, and COX2 mutant plasmids were transformed in the One shot TOP 10 competent cell (Invitrogen). The bacteria were grown in Luria-Bertani (LB, Invitrogen) plates supplemented with 50 μg ml^−1 kanamycin (Sigma-Aldrich) at 37 °C. The bacterial cell pellets were resuspended in lysis buffer containing 20 mM sodium phosphate (GE Healthcare), 500 mM NaCl (GE Healthcare), 20 mM imidazole (pH 7.4) (GE Healthcare), 0.2 mg ml^−1 lysozyme (Sigma-Aldrich), 20 μg ml^−1 DNase I (Roche), 1 mM MgCl2 (Sigma-Aldrich), and 1 mM PMSF (Sigma-Aldrich) before being lysed by sonication and clarified by centrifugation at 15,493×g for 10 min. Proteins were purified from the soluble fraction using His-Spin Trap columns (GE Healthcare) and the binding and acetylation assays were performed.
Acetylation assays were performed according to previously described procedures with minor modifications. […] N-AS (2 μCi, ARC UK Ltd, ARC-1024) at 37 °C for 2 h. [^14C] aspirin (2 μCi, ARC UK Ltd, ARC-0473) was conducted as the positive control. The reactions were terminated by placing the reaction tubes in ice for 5 min. To evaluate in vivo neuronal and microglial COX2 acetylation, 10 μCi [^14C] N-AS was orally administrated to 9-months-old WT and APP/PS1 mice. After 1 h, neuron and microglia were isolated and sonicated in culture media. To immunoprecipitate acetylated COX2, the sample was incubated with COX2 antibody (Abcam, ab15191) at 4 °C for 24 h and precipitated by adding 50 μl of protein-A sepharose (GE Healthcare). Acetylated COX2 proteins bound to the beads were analyzed using a Tri-Carb 3110TR liquid scintillation counter (Perkin-Elmer).

[2] = tested on: APP/PS1 mice; assay: Caspase-3+ cells, apoptosis (Supplementary Fig 7o); assay type: in vivo, mouse
Method: Thioflavin S (Sigma-Aldrich) staining was carried out according to previously described procedures. We used 6E10 (mouse, 1:100, Signet, SIG39300), anti-20G10 (mouse, 1:1000, provided by D. R. Howlett, GlaxoSmithKline, Harlow, Essex, UK) for Aβ42, anti-G30 (rabbit, 1:1000, provided by D. R. Howlett) for Aβ40, SMA (mouse, 1:400, Sigma-Aldrich, A2547), AT8 (mouse, 1:500, Thermo Fisher Scientific, MN1020), Caspase-3 (mouse, 1:200, Novus Biologicals, NB100-56708), ac-S565 (rabbit, 1:100), COX2 (mouse, 1:250, Thermo Fisher Scientific, 35-8200), Iba1 (rabbit, 1:500, Wako, 019-19941 and goat, Abcam, ab5076), NeuN (mouse, 1:500, Millipore, MAB177), GFAP (rabbit, 1:500, Dako, N1506 and chicken, 1:500, Abcam, ab4674), and Lamp1 (mouse, 1:200, Abcam, ab24170). The sections were analyzed with a laser-scanning confocal microscope (FV3000; Olympus) or with a BX51 microscope (Olympus). MetaMorph software (Molecular Devices) was used to quantification. Three-dimensional reconstruction of microglia was recorded and analyzed using IMARIS software (Bitplane)[11]. For the analysis of age-dependent microglial COX2^+ CX3CR1^+ cells in WT and APP/PS1 mice, COX2 (rabbit, 1:100, Abcam, ab15191) and CX3CR1 (mouse, 1:100, BioLegend, 149008) antibody were used and the images were acquired on Alexa 488 and APC Channel with performed using Operetta CLS and Analysis Software 4.5 (Perkin-Elmer). […]

Compound | COX2 acetylation with C14 Acetyl CoA (sFig 1i) ([1]; Acetyl transfer: SphK1, Sph, ATP, listed as C14 Acetyl CoA) | COX2 acetylation with C14 Acetyl CoA (sFig 1i) ([1]; Acetyl transfer: SphK1, Sph, listed as C14 Acetyl CoA) | COX2 acetylation with C14 Acetyl CoA (sFig 1i) ([1]; Acetyl transfer: SphK1, listed as C14 Acetyl CoA) | COX2 acetylation with C14 Acetyl CoA (sFig 1i) ([1]; Acetyl transfer: SphK1 R24A, Sph, listed as C14 Acetyl CoA) | COX2 acetylation with C14 Acetyl CoA (sFig 1i) ([1]; Acetyl transfer: SphK1 R56A, Sph, listed as C14 Acetyl CoA) | COX2 acetylation with C14 Acetyl CoA (sFig 1i) ([1]; Acetyl transfer: SphK1 R57A, Sph, listed as C14 Acetyl CoA) | COX2 acetylation with C14 Acetyl CoA (sFig 1i) ([1]; Acetyl transfer: SphK1 R185A, Sph, listed as C14 Acetyl CoA) | COX2 acetylation with C14 Acetyl CoA (sFig 1i) ([1]; C14 Acetyl CoA +, Acetyl transfer -) | Caspase-3+ cells ([2]; APP/PS1 + N-AS, sFig 7o) | apoptosis (Caspase-3+ cells) ([2]; N-AS vs vehicle APP/PS1)
CC(=O)SCCNC(=O)CCNC(=O)[C@H](O)C(C)(C)COP(=O)(O)OP(=O)(O)OC[C@H]1O[C@@H](n2cnc3c(N)ncnc32)[C@H](O)[C@@H]1OP(=O)(O)O [Acetyl-CoA, acetyl-CoA] | 10456 and 10500 and 10758 and 10726 | 19270 and 24354 and 19216 and 24474 and 19218 and 24370 | 11878 and 13132 and 13238 and 13414 and 13230 | 12532 and 11618 and 11452 and 12034 and 12526 and 12014 | 9992 and 10060 and 9758 and 9780 and 9270 and 10086 | 14380 and 14360 and 14338 and 14310 and 14334 and 14376 | 10222 and 9944 and 10214 and 10110 and 9988 | 2366 and 2614 and 2946 and 2710 and 2880 and 2156 | – | –
CCCCCCCCCCCCC/C=C/[C@@H](O)[C@H](CO)NC(C)=O [N-AS, N-((2S,3R,E)-1,3-Dihydroxyoctadec-4-en-2-yl)acetamide] | – | – | – | – | – | – | – | – | 0.7653 and 0.8763 and 0.6283 and 0.6646 and 0.8616 and 0.8325 | apoptosis was not changed
